Experimental data as given in ChEMBL document CHEMBL4507286 (2021).

Tests used:
[1] = biological target: Tyrosine-protein kinase Fer (Homo sapiens) (UniProt P16591)
[2] = biological target: Ephrin type-A receptor 1 (Homo sapiens) (UniProt P21709)
[3] = biological target: Phosphatidylinositol 4-kinase beta (Homo sapiens) (UniProt Q9UBF8)
[4] = biological target: Protein-tyrosine kinase 2-beta (Homo sapiens) (UniProt Q14289)
[5] = biological target: Casein kinase I isoform gamma-3 (Homo sapiens) (UniProt Q9Y6M4)
[6] = biological target: Mitogen-activated protein kinase kinase kinase 5 (Homo sapiens) (UniProt Q99683)
[7] = biological target: Serine/threonine-protein kinase 38 (Homo sapiens) (UniProt Q15208)
[8] = biological target: MAP kinase-interacting serine/threonine-protein kinase 2 (Homo sapiens) (UniProt Q9HBH9)
[9] = biological target: RAC-gamma serine/threonine-protein kinase (Homo sapiens) (UniProt Q9Y243)
[10] = biological target: Beta-3 adrenergic receptor (Homo sapiens) (UniProt P13945); details: Compound concentration 10.0 uM
[11] = biological target: Serine/threonine-protein kinase Chk1 (Homo sapiens) (UniProt O14757)
[12] = biological target: Ephrin type-B receptor 3 (Homo sapiens) (UniProt P54753)
[13] = biological target: Insulin receptor (Homo sapiens) (UniProt P06213)
[14] = biological target: Serine/threonine-protein kinase NLK (Homo sapiens) (UniProt Q9UBE8)
[15] = system: Epidermal growth factor receptor (Homo sapiens), P00533 [L858R]
[16] = biological target: Dual specificity mitogen-activated protein kinase kinase 7 (Homo sapiens) (UniProt O14733)
[17] = biological target: Serine/threonine-protein kinase PAK 6 (Homo sapiens) (UniProt Q9NQU5)
[18] = biological target: Serine/threonine-protein kinase LATS2 (Homo sapiens) (UniProt Q9NRM7)
[19] = biological target: Serine/threonine-protein kinase 25 (Homo sapiens) (UniProt O00506)
[20] = biological target: Serine/threonine-protein kinase RIO3 (Homo sapiens) (UniProt O14730)
[21] = biological target: Platelet-derived growth factor receptor alpha (Homo sapiens) (UniProt P16234)
[22] = biological target: Tyrosine-protein kinase BTK (Homo sapiens) (UniProt Q06187)
[23] = system: Hepatocyte growth factor receptor (Homo sapiens), P08581 [Y1235D]
[24] = biological target: Serine/threonine-protein kinase ICK (Homo sapiens) (UniProt Q9UPZ9)
[25] = biological target: Serine/threonine-protein kinase MRCK alpha (Homo sapiens) (UniProt Q5VT25)
[26] = biological target: Serine/threonine-protein kinase STK11 (Homo sapiens) (UniProt Q15831)
[27] = biological target: Cyclin-dependent kinase 2 (Homo sapiens, UniProt P24941)
[28] = biological target: Serine/threonine-protein kinase 38-like (Homo sapiens) (UniProt Q9Y2H1)
[29] = biological target: Mitogen-activated protein kinase kinase kinase 11 (Homo sapiens) (UniProt Q16584)
[30] = biological target: Serine/threonine-protein kinase Nek7 (Homo sapiens) (UniProt Q8TDX7)
[31] = biological target: Misshapen-like kinase 1 (Homo sapiens) (UniProt Q8N4C8)
[32] = biological target: Mitogen-activated protein kinase 14 (Homo sapiens) (UniProt Q16539)
[33] = biological target: Casein kinase I isoform alpha-like (Homo sapiens) (UniProt Q8N752)
[34] = biological target: Mitogen-activated protein kinase 12 (Homo sapiens) (UniProt P53778)
[35] = system: Epidermal growth factor receptor (Homo sapiens), P00533 [G719S]
[36] = biological target: Insulin receptor-related protein (Homo sapiens) (UniProt P14616)
[37] = biological target: Myosin light chain kinase 2, skeletal/cardiac muscle (Homo sapiens) (UniProt Q9H1R3)
[38] = biological target: Alpha-2B adrenergic receptor (Homo sapiens) (UniProt P18089); details: Compound concentration 10.0 uM
[39] = biological target: Dual specificity mitogen-activated protein kinase kinase 6 (Homo sapiens) (UniProt P52564)
[40] = biological target: Serine/threonine-protein kinase Nek5 (Homo sapiens) (UniProt Q6P3R8)
[41] = biological target: Dual specificity protein kinase CLK2 (Homo sapiens, UniProt P49760)
[42] = system: Epidermal growth factor receptor (Homo sapiens), P00533 [UNDEFINED MUTATION]
[43] = biological target: Serine/threonine-protein kinase 33 (Homo sapiens) (UniProt Q9BYT3)
[44] = biological target: Mast/stem cell growth factor receptor Kit (Homo sapiens) (UniProt P10721)
[45] = biological target: Serine/threonine-protein kinase RIO1 (Homo sapiens) (UniProt Q9BRS2)
[46] = biological target: Cyclin-dependent kinase 11B (Homo sapiens) (UniProt P21127)
[47] = Compound concentration 1000.0 nM
[48] = Compound concentration 100.0 nM

Casein kinase I isoform gamma-3 (Homo sapiens), sequence (Q9Y6M4 whole entry, looked up, canonical isoform): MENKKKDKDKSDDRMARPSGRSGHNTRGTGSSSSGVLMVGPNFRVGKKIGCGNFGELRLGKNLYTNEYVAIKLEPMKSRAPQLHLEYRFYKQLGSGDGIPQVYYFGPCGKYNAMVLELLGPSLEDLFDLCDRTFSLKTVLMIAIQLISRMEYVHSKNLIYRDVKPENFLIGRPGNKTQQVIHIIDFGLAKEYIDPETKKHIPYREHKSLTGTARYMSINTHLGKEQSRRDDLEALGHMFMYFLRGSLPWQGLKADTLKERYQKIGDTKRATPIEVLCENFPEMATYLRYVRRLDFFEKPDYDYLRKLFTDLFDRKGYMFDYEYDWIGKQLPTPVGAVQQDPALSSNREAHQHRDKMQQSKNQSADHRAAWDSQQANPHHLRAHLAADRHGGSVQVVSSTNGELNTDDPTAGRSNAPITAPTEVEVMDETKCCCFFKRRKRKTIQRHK
Serine/threonine-protein kinase Nek7 (Homo sapiens), sequence (Q8TDX7 whole entry, looked up): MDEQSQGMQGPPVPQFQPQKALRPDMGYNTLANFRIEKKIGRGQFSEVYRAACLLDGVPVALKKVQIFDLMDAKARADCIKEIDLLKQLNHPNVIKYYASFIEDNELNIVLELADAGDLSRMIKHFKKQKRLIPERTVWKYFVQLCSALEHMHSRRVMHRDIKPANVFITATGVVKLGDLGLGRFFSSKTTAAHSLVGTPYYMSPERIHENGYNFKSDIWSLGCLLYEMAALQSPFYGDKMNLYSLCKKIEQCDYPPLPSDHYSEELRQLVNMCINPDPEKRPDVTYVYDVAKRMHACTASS
Phosphatidylinositol 4-kinase beta (Homo sapiens), sequence (Q9UBF8 2-816 limits assumed): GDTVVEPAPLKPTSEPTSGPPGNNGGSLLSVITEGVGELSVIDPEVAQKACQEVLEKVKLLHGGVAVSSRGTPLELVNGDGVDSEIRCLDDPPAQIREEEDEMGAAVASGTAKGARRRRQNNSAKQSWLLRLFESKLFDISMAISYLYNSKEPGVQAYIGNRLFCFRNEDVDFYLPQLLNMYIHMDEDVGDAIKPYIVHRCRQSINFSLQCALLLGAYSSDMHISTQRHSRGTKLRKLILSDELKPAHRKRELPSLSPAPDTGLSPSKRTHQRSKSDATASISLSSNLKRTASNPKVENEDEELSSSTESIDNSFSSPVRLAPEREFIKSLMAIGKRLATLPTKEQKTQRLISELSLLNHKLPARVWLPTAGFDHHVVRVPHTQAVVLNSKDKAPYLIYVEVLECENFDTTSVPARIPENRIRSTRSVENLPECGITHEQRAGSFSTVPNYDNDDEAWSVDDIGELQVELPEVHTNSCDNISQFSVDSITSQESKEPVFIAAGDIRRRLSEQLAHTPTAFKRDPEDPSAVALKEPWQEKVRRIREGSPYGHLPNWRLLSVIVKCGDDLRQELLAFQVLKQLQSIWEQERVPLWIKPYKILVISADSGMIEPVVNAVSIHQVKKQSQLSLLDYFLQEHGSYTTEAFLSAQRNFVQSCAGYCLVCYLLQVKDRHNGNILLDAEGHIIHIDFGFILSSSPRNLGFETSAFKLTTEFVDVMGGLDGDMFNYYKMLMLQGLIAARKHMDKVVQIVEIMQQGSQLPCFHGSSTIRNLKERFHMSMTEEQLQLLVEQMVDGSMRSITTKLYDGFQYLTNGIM
Serine/threonine-protein kinase 38 (Homo sapiens), sequence (Q15208 2-465 limits assumed): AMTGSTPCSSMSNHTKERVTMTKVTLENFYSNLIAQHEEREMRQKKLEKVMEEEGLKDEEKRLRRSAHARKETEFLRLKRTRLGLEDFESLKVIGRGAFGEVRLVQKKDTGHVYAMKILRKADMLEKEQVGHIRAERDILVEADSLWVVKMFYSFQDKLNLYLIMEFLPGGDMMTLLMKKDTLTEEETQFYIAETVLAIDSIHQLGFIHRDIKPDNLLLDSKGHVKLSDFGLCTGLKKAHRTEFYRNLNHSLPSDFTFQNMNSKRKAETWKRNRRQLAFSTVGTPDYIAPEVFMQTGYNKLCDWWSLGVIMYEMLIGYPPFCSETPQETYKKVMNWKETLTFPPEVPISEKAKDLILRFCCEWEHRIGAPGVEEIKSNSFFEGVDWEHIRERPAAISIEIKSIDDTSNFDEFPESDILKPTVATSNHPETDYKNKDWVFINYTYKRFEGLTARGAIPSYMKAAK
Mitogen-activated protein kinase 14 (Homo sapiens), sequence (Q16539 whole entry, canonical isoform): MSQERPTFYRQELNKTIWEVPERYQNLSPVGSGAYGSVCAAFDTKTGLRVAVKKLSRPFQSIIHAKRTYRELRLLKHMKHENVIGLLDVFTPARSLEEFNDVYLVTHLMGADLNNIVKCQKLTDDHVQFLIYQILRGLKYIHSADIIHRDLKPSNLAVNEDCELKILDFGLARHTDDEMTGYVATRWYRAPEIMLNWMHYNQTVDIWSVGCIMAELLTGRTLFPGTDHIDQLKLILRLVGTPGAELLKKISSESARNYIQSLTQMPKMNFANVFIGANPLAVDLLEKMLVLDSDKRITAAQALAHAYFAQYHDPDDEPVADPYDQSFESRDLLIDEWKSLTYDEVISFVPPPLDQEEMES
Insulin receptor (Homo sapiens), sequence (P06213 28-758 limits assumed): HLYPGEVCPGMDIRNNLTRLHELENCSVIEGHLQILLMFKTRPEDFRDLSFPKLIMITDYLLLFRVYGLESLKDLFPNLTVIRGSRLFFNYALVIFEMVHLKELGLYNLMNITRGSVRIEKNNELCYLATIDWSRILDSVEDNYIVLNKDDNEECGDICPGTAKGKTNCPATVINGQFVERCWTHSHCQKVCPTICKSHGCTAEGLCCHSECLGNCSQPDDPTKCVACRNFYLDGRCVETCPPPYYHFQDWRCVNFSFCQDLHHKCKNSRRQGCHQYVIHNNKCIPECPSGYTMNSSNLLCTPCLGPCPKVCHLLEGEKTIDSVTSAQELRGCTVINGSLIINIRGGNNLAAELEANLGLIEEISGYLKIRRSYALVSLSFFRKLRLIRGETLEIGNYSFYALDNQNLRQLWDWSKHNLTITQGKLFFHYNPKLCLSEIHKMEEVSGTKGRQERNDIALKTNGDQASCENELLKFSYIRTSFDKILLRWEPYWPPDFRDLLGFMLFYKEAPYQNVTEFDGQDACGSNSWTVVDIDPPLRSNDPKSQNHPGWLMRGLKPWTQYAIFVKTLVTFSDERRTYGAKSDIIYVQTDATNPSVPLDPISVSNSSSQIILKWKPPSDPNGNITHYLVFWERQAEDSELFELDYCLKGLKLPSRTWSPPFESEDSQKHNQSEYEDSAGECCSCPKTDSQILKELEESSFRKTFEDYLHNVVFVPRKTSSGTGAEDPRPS
Insulin receptor (Homo sapiens), sequence (P06213 763-1382 limits assumed): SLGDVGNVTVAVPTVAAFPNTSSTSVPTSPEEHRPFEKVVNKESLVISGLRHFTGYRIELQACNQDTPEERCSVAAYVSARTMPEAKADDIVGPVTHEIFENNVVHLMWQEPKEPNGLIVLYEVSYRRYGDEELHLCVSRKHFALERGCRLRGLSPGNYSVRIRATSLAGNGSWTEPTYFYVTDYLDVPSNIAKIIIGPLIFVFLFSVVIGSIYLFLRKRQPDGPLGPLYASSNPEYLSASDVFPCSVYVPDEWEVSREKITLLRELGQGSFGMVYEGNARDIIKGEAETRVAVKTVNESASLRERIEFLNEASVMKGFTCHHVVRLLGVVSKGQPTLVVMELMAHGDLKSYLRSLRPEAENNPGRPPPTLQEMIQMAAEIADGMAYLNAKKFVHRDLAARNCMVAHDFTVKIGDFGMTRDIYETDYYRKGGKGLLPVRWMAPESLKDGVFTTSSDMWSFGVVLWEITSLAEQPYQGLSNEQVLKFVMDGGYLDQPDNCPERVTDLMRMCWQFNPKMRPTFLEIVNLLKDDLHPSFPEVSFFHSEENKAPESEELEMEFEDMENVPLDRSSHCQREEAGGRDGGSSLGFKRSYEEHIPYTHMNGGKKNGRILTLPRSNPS
Mast/stem cell growth factor receptor Kit (Homo sapiens), sequence (P10721 whole entry): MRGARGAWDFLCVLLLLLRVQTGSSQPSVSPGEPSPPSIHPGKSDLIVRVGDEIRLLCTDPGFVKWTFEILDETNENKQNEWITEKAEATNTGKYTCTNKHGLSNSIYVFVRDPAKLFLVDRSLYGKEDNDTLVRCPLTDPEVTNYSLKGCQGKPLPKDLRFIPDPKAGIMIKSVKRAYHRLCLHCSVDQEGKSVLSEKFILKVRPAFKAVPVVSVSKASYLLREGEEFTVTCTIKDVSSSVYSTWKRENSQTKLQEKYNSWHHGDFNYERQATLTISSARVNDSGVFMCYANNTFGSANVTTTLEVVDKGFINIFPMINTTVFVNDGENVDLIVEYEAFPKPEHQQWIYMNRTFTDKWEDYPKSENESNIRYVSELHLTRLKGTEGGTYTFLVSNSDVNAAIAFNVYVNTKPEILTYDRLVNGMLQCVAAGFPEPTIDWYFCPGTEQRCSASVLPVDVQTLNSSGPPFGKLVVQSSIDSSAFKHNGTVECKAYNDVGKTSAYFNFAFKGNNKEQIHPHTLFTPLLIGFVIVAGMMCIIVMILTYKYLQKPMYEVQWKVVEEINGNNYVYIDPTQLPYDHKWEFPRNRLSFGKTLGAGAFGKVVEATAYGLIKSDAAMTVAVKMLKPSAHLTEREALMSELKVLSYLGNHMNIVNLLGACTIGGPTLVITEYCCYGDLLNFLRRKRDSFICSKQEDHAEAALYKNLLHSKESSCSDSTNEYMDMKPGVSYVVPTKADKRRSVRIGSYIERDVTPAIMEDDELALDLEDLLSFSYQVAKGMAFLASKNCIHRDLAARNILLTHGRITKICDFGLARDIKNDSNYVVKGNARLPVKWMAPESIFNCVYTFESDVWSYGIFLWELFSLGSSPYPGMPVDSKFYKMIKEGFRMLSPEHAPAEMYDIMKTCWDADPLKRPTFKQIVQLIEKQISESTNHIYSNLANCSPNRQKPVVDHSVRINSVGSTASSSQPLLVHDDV

Which results are given for C[C@H](NC(=O)Nc1cc2[nH]ncc2c(CO)n1)c1ccccn1 [ERKi-NC]?
residual activity [1, 47]: 88.8%; residual activity [2, 47]: 100%; residual activity [3, 47]: 100%; residual activity [4, 47]: 100%; residual activity [5, 47]: 100%; residual activity [6, 47]: 100%; residual activity [7, 47]: 81.4%; residual activity [8, 47]: 82.6%; residual activity [9, 47]: 100%; inhibition [10]: 13.6%; residual activity [11, 47]: 100%; residual activity [12, 47]: 100%; residual activity [13, 47]: 100%; residual activity [14, 47]: 66.3%; residual activity [15, 47]: 100%; residual activity [16, 47]: 94.1%; residual activity [17, 47]: 100%; residual activity [18, 47]: 100%; residual activity [19, 47]: 100%; residual activity [20, 47]: 90.7%; residual activity [21, 47]: 100%; residual activity [22, 47]: 92%; residual activity [23, 47]: 100%; residual activity [24, 47]: 71.4%; residual activity [25, 47]: 93.5%; residual activity [26, 47]: 100%; residual activity [27, 47]: 100%; residual activity [28, 47]: 100%; residual activity [29, 47]: 87.7%; residual activity [30, 47]: 98%; residual activity [31, 47]: 77.7%; residual activity [32, 47]: 100%; residual activity [33, 47]: 100%; residual activity [34, 47]: 48.4%; residual activity [35, 47]: 100%; residual activity [36, 47]: 100%; residual activity [37, 47]: 76.6%; inhibition [38]: -0.465%; residual activity [39, 47]: 100%; residual activity [40, 47]: 84.3%; residual activity [41, 47]: 100%; residual activity [42, 47]: 86.6%; residual activity [43, 47]: 100%; residual activity [44, 47]: 71.5%; residual activity [45, 47]: 100%; residual activity [46, 47]: 94.2%

Which residual activity [1, 48] does the source give for C[C@@H](NC(=O)Nc1cc2[nH]ncc2c(CO)n1)c1ccccc1 [ERKi] here?
The residual activity was 100%.

What about the residual activity [2, 48] of the same molecule?
Its residual activity is 100%.

What about the residual activity [3, 48] of the same molecule?
Its residual activity is 82.1%.

What about the residual activity [4, 48] of the same molecule?
Its residual activity is 75%.

And the residual activity [5, 48]?
Its residual activity is 87.9%.

What about the residual activity [6, 48] of the same molecule?
Its residual activity is 100%.

What about the residual activity [7, 48] of the same molecule?
Its residual activity is 75.2%.

And the residual activity [8, 48]?
Its residual activity is 90.6%.

What about the residual activity [9, 48] of the same molecule?
Its residual activity is 73.3%.

And the inhibition [10]?
Its inhibition is 24.1%.

And the residual activity [11, 48]?
The residual activity was 97.1%.

And the residual activity [12, 48]?
The residual activity was 94.8%.

What about the residual activity [13, 48] of the same molecule?
The residual activity was 74.7%.

And the residual activity [14, 48]?
The residual activity was 100%.

And the residual activity [15, 48]?
Its residual activity is 86.7%.

What about the residual activity [16, 48] of the same molecule?
The residual activity was 89.4%.

And the residual activity [17, 48]?
Its residual activity is 63.5%.

What about the residual activity [18, 48] of the same molecule?
The residual activity was 29%.

And the residual activity [19, 48]?
The residual activity was 61.5%.

What about the residual activity [20, 48] of the same molecule?
The residual activity was 100%.

What about the residual activity [21, 48] of the same molecule?
The residual activity was 87.3%.

And the residual activity [22, 48]?
Its residual activity is 100%.

And the residual activity [23, 48]?
Its residual activity is 90.5%.

And the residual activity [24, 48]?
The residual activity was 80.9%.

And the residual activity [25, 48]?
Its residual activity is 86.5%.

And the residual activity [26, 48]?
Its residual activity is 91.2%.

And the residual activity [27, 48]?
Its residual activity is 75.7%.

What about the residual activity [28, 48] of the same molecule?
The residual activity was 72.7%.

And the residual activity [29, 48]?
Its residual activity is 100%.

And the residual activity [30, 48]?
The residual activity was 76.9%.

What about the residual activity [31, 48] of the same molecule?
Its residual activity is 90.1%.

What about the residual activity [32, 48] of the same molecule?
Its residual activity is 100%.

And the residual activity [33, 48]?
Its residual activity is 79.8%.

And the residual activity [34, 48]?
Its residual activity is 80.7%.

What about the residual activity [35, 48] of the same molecule?
Its residual activity is 86.3%.

What about the residual activity [36, 48] of the same molecule?
Its residual activity is 82.9%.

And the residual activity [37, 48]?
The residual activity was 100%.

And the inhibition [38]?
Its inhibition is -1.5%.

And the residual activity [39, 48]?
The residual activity was 81.4%.

And the residual activity [40, 48]?
Its residual activity is 97.6%.

And the residual activity [41, 48]?
Its residual activity is 68.5%.

And the residual activity [42, 48]?
Its residual activity is 72.6%.

What about the residual activity [43, 48] of the same molecule?
The residual activity was 100%.

What about the residual activity [44, 48] of the same molecule?
Its residual activity is 89.5%.

And the residual activity [45, 48]?
Its residual activity is 100%.

What about the residual activity [46, 48] of the same molecule?
Its residual activity is 97.4%.
